Compound: CCOc1cc2ncc(C#N)c(Nc3ccc(OCc4ccccn4)c(Cl)c3)c2cc1NC(=O)/C=C/CN(C)C [Neratinib]
Experiment: relative viability (nuclei count vs DMSO), 5 days (fraction); higher = more cells survive
Method in brief: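 Vehicle-anchored 1536-well plates of lung cancer cell lines, held overnight at 37 °C, were pinned with five library-drug doses (not always all listed) spaced by √10. No medium change followed over the next 5 days, after which the cells were fixed, permeabilised and Hoechst-stained together and imaged at 4×. Nuclei were counted with MetaXpress, and viability is treated-well nuclei over vehicle-well nuclei, taken as a median across plates. Plates passed with control CV below 25% and at least one doubling.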

Cell Line	relative viability (0.03162 µM)	relative viability (0.1 µM)	relative viability (0.3162 µM)	relative viability (1 µM)	relative viability (0.01 µM)
NCI-H460	1.11	0.865	0.978	0.981	–
NCI-H1793	1	0.682	0.749	0.527	1.11
NCI-H2347	1.08	0.904	1.08	–	1.07
HARA	1.05	0.668	0.663	0.644	1.02
NCI-H1792	1.19	0.808	–	0.813	1.33
NCI-H1703	0.951	0.909	0.778	0.388	1.16
CAL-12T	1.09	0.868	0.631	0.301	1.06
PC-3 [JPC-3]	1.12	0.947	0.687	0.471	1.07
NCI-H2087	0.894	0.829	0.883	0.644	1.15
NCI-H1395	0.948	0.992	0.917	0.654	0.994
SW 900	1.05	0.772	0.94	0.94	–
NCI-H520	1.07	0.937	0.922	0.649	1.11
A549	1.07	0.856	0.911	0.516	1.06
IA-LM	1.04	0.943	0.881	0.562	1.03
EKVX	0.976	0.812	0.43	0.25	1.04
ChaGo-K-1	1.12	0.896	0.865	0.971	0.995
NCI-H1755	1.01	0.858	1.02	1.05	–
NCI-H23	1.15	0.811	0.922	0.739	1.1
NCI-H2126	0.998	0.904	0.907	0.553	1.03
LU99A	1.04	0.908	0.891	0.646	0.948
NCI-H1355	1.02	0.833	0.933	0.826	1.11
NCI-H650	1.04	1.12	0.662	0.877	1.02
PC-14	1.13	0.964	0.732	0.211	1.1
NCI-H838	1.02	0.88	0.946	0.532	1
NCI-H727	0.878	0.639	0.884	0.624	–
201T	0.996	0.929	1.02	0.934	1.01

Cell Line	relative viability (0.03162 µM)	relative viability (0.1 µM)	relative viability (0.3162 µM)	relative viability (1 µM)	relative viability (0.01 µM)
RERF-LC-KJ	0.998	0.86	0.806	0.556	1
NCI-H596	1.03	0.984	1.09	0.817	1.01
SK-LU-1	1.2	–	0.979	0.46	1.1
LK-2	1.05	0.988	0.718	0.499	1.12
COR-L23	1.17	0.87	1.02	0.86	1.21
NCI-H1944	0.977	0.865	0.767	0.569	1.18
HCC-78	1.03	0.892	0.87	0.475	1.07
NCI-H3122	1.02	0.931	0.991	0.5	–
NCI-H1993	0.837	0.719	0.685	0.731	1.03
EMC-BAC-2	1.01	0.977	0.935	0.722	1.32
NCI-H1650	0.906	0.833	0.68	0.694	0.985
NCI-H661	0.999	0.808	0.57	0.448	1.1
LCLC-97TM1	1.08	0.955	0.689	0.696	1.05
H3255	0.985	0.78	0.327	0.224	1.07
LXF-289	1.07	0.948	1.05	1.01	1.03
NCI-H1648	0.931	0.657	0.383	0.432	0.819
NCI-H647	1	0.931	–	0.483	1.07
LC-2-ad	1.03	0.915	0.738	0.797	1.01
SK-MES-1	1.09	0.91	0.463	0.298	1.06
A-427	1.1	1.01	0.949	0.986	1.19
NCI-H441	1.15	0.89	–	0.529	1.32
HCC-366	1.1	–	1.01	–	1.05
NCI-H1975	1.1	0.905	0.58	0.244	1.07
NCI-H1437	1.03	0.95	0.94	0.95	1.05
NCI-H2023	0.824	–	0.881	0.707	0.997
NCI-H1651	1.08	0.952	0.907	0.822	1.04

Cell Line	relative viability (0.03162 µM)	relative viability (0.1 µM)	relative viability (0.3162 µM)	relative viability (1 µM)	relative viability (0.01 µM)
LCLC-103H	0.997	0.897	1.07	0.989	0.996
NCI-H1666	1.03	0.884	0.76	0.78	1
NCI-H1734	1.05	0.914	0.929	0.734	1.05
EPLC-272H	0.869	0.841	0.666	0.358	0.867
NCI-H2085	1.01	0.871	0.891	0.814	0.977
BEN	1.18	1.03	0.849	0.753	–
COR-L 105	–	0.687	0.329	0.297	0.904
ABC-1	1.06	0.898	0.777	0.364	1.06
HCC-15	1.15	0.932	0.878	0.886	1.04
NCI-H2170	0.994	0.62	0.26	0.24	0.995
SW 1573	1.18	0.828	0.912	0.716	1.09
NCI-H2009	1.05	0.989	0.927	0.96	1.01
NCI-H358	0.792	0.556	0.275	0.242	0.949
NCI-H1563	1.07	0.915	0.864	0.706	1.03
EBC-1	1.12	0.872	0.993	0.813	1.02
NCI-H1915	1.03	0.972	0.916	1.05	1.07
UMC-11	1.14	0.748	0.898	0.832	0.901
LOU-NH91	0.92	0.796	0.691	0.676	0.988
NCI-H2405	1.07	0.989	0.98	0.739	1.06
NCI-H2228	1.21	0.973	0.858	0.223	–
HCC-827	1.13	0.982	0.679	0.183	1.09
Calu-6	–	0.992	0.955	0.835	1.06
NCI-H322M	0.926	0.784	0.491	0.288	0.956
HOP-62	1.15	0.934	0.914	1.09	1.02
HCC-44	1.01	1.01	0.943	1.06	1.06
